Source: US6911453B2 (Aventis Pharma Deutschland GmbH, priority 2001, dated 2005)
Structures can show the parent of a compound that is named as a salt.

Tests used:
[1] = target: T1, NHE3 (Homo sapiens, UniProt P48764); assay: Recovery of intracellular pH (pHi) after acidification, BCECF fluorescence, NHE3; assay type: cell-based; settings: inhibition of pH recovery after intracellular acidification; rate recorded for three minutes; BCECF-loaded cells
T1 sequence (P48764 1-834): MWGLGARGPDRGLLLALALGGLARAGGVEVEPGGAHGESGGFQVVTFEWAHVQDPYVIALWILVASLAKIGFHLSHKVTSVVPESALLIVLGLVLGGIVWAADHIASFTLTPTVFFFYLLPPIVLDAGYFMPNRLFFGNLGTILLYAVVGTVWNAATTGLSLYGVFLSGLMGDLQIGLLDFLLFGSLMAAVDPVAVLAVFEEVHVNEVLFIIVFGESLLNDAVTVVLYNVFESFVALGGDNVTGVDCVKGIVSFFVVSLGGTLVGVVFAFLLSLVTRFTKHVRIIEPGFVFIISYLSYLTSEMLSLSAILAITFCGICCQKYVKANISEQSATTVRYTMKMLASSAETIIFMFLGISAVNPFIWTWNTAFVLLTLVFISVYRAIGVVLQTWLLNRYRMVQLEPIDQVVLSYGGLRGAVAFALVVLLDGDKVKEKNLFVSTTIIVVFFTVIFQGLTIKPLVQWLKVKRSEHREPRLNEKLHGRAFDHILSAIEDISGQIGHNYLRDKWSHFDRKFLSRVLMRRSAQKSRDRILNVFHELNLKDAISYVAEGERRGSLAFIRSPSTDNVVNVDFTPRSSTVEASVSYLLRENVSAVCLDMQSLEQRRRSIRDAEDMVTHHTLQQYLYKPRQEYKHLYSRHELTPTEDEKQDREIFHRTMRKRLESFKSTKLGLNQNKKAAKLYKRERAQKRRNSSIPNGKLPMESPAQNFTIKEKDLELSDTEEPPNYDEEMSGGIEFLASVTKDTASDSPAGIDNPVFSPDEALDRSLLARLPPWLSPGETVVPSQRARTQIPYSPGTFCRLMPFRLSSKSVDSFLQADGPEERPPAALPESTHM
Description: In this test, the recovery in the intracellular pH (pHi) after an acidification is ascertained, which is initiated if the NHE is capable of functioning, even under bicarbonate-free conditions. For this purpose, the pHi was determined using the pH-sensitive fluorescent dye BCECF (Calbiochem, the precursor BCECF-AM is employed).
The cells were initially loaded with BCECF. The BCECF fluorescence was determined in a “Ratio Fluorescence Spectrometer” (Photon Technology International, South Brunswick, N.J., USA) at excitation wavelengths of 505 and 440 nm and an emission wavelength of 535 nm and converted into the pHi using calibration curves. The cells were incubated in NH4Cl buffer (pH 7.4) (NH4Cl buffer: 115 mM NaCl, 20 mM NH4Cl, 5 mM KCl, 1 mM CaCl2, 1 mM MgSO4, 20 mM Hepes, 5 mM glucose, 1 mg/ml BSA; a pH of 7.4 is adjusted with 1 M NaOH) even during the BCECF loading. The intracellular acidification was induced by adding 975 μl of an NH4Cl-free buffer (see below) to 25 μl aliquots of the cells incubated in NH4Cl buffer. The subsequent rate of pH recovery was recorded for two minutes with NHE1, five minutes with NHE2 and three minutes with NHE3. To calculate the inhibitory potency of the tested substances, the cells were initially investigated in buffers with which a complete or absolutely no pH recovery took place. For complete pH recovery (100%), the cells were incubated in Na^+-containing buffer (133.8 mM NaCl, 4.7 mM KCl, 1.25 mM CaCl2, 1.25 mM MgCl2, 0.97 mM Na2HPO4, 0.23 mM NaH2PO4, 5 mM Hepes, 5 mM glucose, a pH of 7.0 is adjusted with 1 M NaOH). To determine the 0% value, the cells were incubated in an Na^+-free buffer (133.8 mM choline chloride, 4.7 mM KCl, 1.25 mM CaCl2, 1.25 mM MgCl2, 0.97 mM K2HPO4, 0.23 mM KH2PO4, 5 mM Hepes, 5 mM glucose, a pH of 7.0 is adjusted with 1 M NaOH). The substances to be tested were made up in the Na^+-containing buffer. The recovery of the intracellular pH at each test concentration of a substance was expressed as a percentage of the maximum recovery. The IC50 value for the particular substance for the individual NHE subtypes was calculated from the pH recovery percentages using the Sigma-Plot program.

`CC(=O)Nc1ccc(C2CN(C)Cc3c(Cl)cc(Cl)cc32)cc1` (stereo not shown) showed a melting point of 205 to 206 °C.
For `CN1Cc2c(Cl)cc(Cl)cc2C(c2ccc(S(N)(=O)=O)cc2)C1` (single isomer, unassigned; (+)) [Example 2a, (+)-4-(6,8-Dichloro-2-methyl-1,2,3,4-tetrahydro-isoquinolin-4-yl)-benzene-sulfonamide hydrochloride], the IC50 [1] was 0.082 µM.
`CN1Cc2c(Cl)cc(Cl)cc2C(c2cccc(S(N)(=O)=O)c2)C1` (single isomer, unassigned; (+)) [Example 2b, (+)-3-(6,8-Dichloro-2-methyl-1,2,3,4-tetrahydro-isoquinolin-4-yl)-benzene-sulfonamide hydrochloride] showed an IC50 [1] of 0.026 µM.
`CNC(=O)N(C)c1cccc(C2CN(C)Cc3c(Cl)cc(Cl)cc32)c1` (single isomer, unassigned; (+)) [Example 199] showed an IC50 [1] of 0.252 µM.
In the case of `CC(=O)Nc1ccc(C2CN(C)Cc3c(Cl)cc(Cl)cc32)cc1.Cl` (stereo not shown) [Example 1a, N-[4-(6,8-Dichloro-2-methyl-1,2,3,4-tetrahydro-isoquinolin-4-yl)-phenyl]-acetamide-hydrochloride], the IC50 [1] is reported as 0.075 µM and the melting point is reported as 125 °C (dec.).
With `CN1Cc2c(Cl)cc(Cl)cc2C(c2ccc(C(=O)O)cc2)C1` (stereo not shown) [Example 6, 4-(6,8-Dichloro-2-methyl-1,2,3,4-tetrahydro-isoquinolin-4-yl)-benzoic acid] the IC50 [1] was 0.67 µM.
`CCNC(=O)c1ccc(C2CN(C)Cc3c(Cl)cc(Cl)cc32)cc1` (stereo not shown) [Example 7, 4-(6,8-Dichloro-2-methyl-1,2,3,4-tetrahydroisoquinolin-4-yl)-N-ethyl-benzamide, Trifluoroacetate] gave an IC50 [1] of 0.25 µM.
With `CN1Cc2c(Cl)cc(Cl)cc2C(c2ccc(N3CCOCC3)cc2)C1` (stereo not shown) [Example 10, 6,8-Dichloro-2-methyl-4-(4-morpholin-4-yl-phenyl)-1,2,3,4-tetrahydroisoquinoline, Trifluoroacetate] the IC50 [1] was 1 µM.
`CN1Cc2c(Cl)cc(Cl)cc2C(c2ccc(N)cc2)C1` (stereo not shown) [Example 17, 4-(6,8-Dichloro-2-methyl-1,2,3,4-tetrahydro-isoquinolin-4-yl)-phenylamine, Hydrochloride] gave an IC50 [1] of 0.049 µM.
In the case of `CCNC(=O)Nc1ccc(C2CN(C)Cc3c(Cl)cc(Cl)cc32)cc1` (stereo not shown) [Example 21, 1-[4-(6,8-Dichloro-2-methyl-1,2,3,4-tetrahydro-isoquinolin-4-yl)-phenyl]-3-ethylurea], the IC50 [1] is reported as 0.814 µM and the melting point is reported as 218 to 220 °C.
For `CC(=O)Nc1ccc(C2CN(C)Cc3c(C)cc(C)cc32)cc1` (stereo not shown) [Example 23, N-[4-(2,6,8-Trimethyl-1,2,3,4-tetrahydro-isoquinolin-4-yl)-phenyl]-acetamide], the IC50 [1] was 1.51 µM.
For `CC(=O)Nc1ccc(C2CN(C)Cc3c(Cl)cc(Br)cc32)cc1` (stereo not shown) [Example 24, N-[4-(6-Bromo-8-chloro-2-methyl-1,2,3,4-tetrahydro-isoquinolin-4-yl)-phenyl]-acetamide], the IC50 [1] was 0.34 µM.
In the case of `CN1Cc2c(Cl)cc(Cl)cc2C(c2ccc(O)c(C(=O)O)c2)C1` (stereo not shown) [Example 29, 5-(6,8-Dichloro-2-methyl-1,2,3,4-tetrahydro-isoquinolin-4-yl)-2-hydroxy-benzoic acid], the IC50 [1] is reported as 0.318 µM.
Work on `CN1Cc2c(Cl)cc(Cl)cc2C(c2ccccc2N)C1` (stereo not shown) [Example 36, 2-(6,8-Dichloro-2-methyl-1,2,3,4-tetrahydro-isoquinolin-4-yl)-phenylamine] yielded an IC50 [1] of 0.274 µM.
With `CN1Cc2c(Cl)cc(Cl)cc2C(c2ccc(NS(C)(=O)=O)cc2)C1` (stereo not shown) [Example 48] the IC50 [1] was 0.349 µM.
Compound `CCC(=O)Nc1cccc(C2CN(C)Cc3c(Cl)cc(Cl)cc32)c1` (stereo not shown) [Example 51] has an IC50 [1] of 0.215 µM.
For `CC(=O)N1CCC(C(=O)Nc2cccc(C3CN(C)Cc4c(Cl)cc(Cl)cc43)c2)CC1` (stereo not shown) [Example 60], the IC50 [1] was 0.202 µM.
In the case of `CN1Cc2c(Cl)cc(Cl)cc2C(c2cccc(NS(=O)(=O)N(C)C)c2)C1` (stereo not shown) [Example 64], the IC50 [1] is reported as 0.507 µM.
`CNC(=S)Nc1ccccc1C1CN(C)Cc2c(Cl)cc(Cl)cc21` (stereo not shown) [Example 81, 1-[2-(6,8-Dichloro-2-methyl-1,2,3,4-tetrahydro-isoquinolin-4-yl)-phenyl]-3-methyl-thiourea, Trifluoroacetate] gave an IC50 [1] of 0.73 µM.
Compound `CN1Cc2c(Cl)cc(Cl)cc2C(c2ccc(NS(=O)(=O)C(F)(F)F)cc2)C1` (stereo not shown) [Example 87] has an IC50 [1] of 0.418 µM.
In the case of `Cc1nc(S(=O)(=O)Nc2cccc(C3CN(C)Cc4c(Cl)cc(Cl)cc43)c2)cn1C` (stereo not shown) [Example 97], the IC50 [1] is reported as 0.308 µM.
Compound `CN1Cc2c(Cl)cc(Cl)cc2C(c2ccc(Cl)c(S(N)(=O)=O)c2)C1` (stereo not shown) [Example 99] has a melting point of 122 °C.
With `CN(C)CC(=O)Nc1ccc(C2CN(C)Cc3c(Cl)cc(Cl)cc32)cc1` (stereo not shown) [Example 113] the IC50 [1] was 0.279 µM.
Work on `CN1Cc2c(Cl)cc(Cl)cc2C(c2ccc(NC(=O)c3cc[nH]c3)cc2)C1` (stereo not shown) [Example 119] yielded an IC50 [1] of 0.682 µM.
Compound `CN1Cc2c(Cl)cc(Cl)cc2C(c2cccc(NC(=O)C3CCN(S(C)(=O)=O)CC3)c2)C1` (stereo not shown) [Example 144] has an IC50 [1] of 0.695 µM.
For `CN1Cc2c(Cl)cc(Cl)cc2C(c2cccc(NC(=O)c3cn[nH]c3)c2)C1` (stereo not shown) [Example 146], the IC50 [1] was 0.024 µM.
For `CN1Cc2c(Cl)cc(Cl)cc2C(c2cccc(NC(=O)N3CCCCC3)c2)C1` (stereo not shown) [Example 153], the IC50 [1] was 0.602 µM.
Compound `CN1Cc2c(Cl)cc(Cl)cc2C(c2ccc(NC(=O)N3CCOCC3)cc2)C1` (stereo not shown) [Example 183] has an IC50 [1] of 0.597 µM.
Compound `COC(=O)Nc1cccc(C2CN(C)Cc3c(Cl)cc(Cl)cc32)c1` (stereo not shown) [Example 207, [3-(6,8-Dichloro-2-methyl-1,2,3,4-tetrahydro-isoquinolin-4-yl)-phenyl]-carbamic acid methyl Ester—Hydrochloride Salt] has an IC50 [1] of 0.186 µM.
